Entries after “also recorded” stand apart in the source; their conditions may differ. Like-named read-outs stand apart in the source and are kept apart here.

The values below come from article PMC3793977, “High-Throughput Screening (HTS) and Hit Validation to Identify Small Molecule Inhibitors with Activity against NS3/4A proteases from Multiple Hepatitis C Virus Genotypes” (PLoS ONE, 2013).

One data set deals with T1, Trypsin (Homo sapiens, UniProt P07477).
T1 construct: purchased Sigma
In words: Inhibitor selectivity assay, trypsin (fluorometric). Type of data set: biochemical. As to the method:
(§1) To test for selectivity, two human serine proteases, Trypsin and Chymotrypsin (Sigma), were tested with the top two hit compounds from HTS using a fluorometric assay. The fluorogenic substrates used in this study were N-benzoyl-L-Arg-7-amido-4-methylcoumarin (Sigma) and N-succinyl-Ala-Ala-Phe-7-amido-4- methylcoumarin (Sigma) for trypsin and chymotrypsin, respectively. All assays were performed in 384-well black plates (Corning) in a total volume of 24 µL of PBS (pH 7.4) buffer containing 0.01% Triton, 0.1 mg/mL BSA, and 2 mM GSH in triplicate. A series of compound concentrations (0 to 200 µM final concentration at 2-fold serial dilution) in 100% DMSO was prepared in a 384-well plate. 20 µL of trypsin (0.01 mg/mL) and chymotrypsin (0.0001 mg/mL) solutions were distributed into wells, and 0.5 µL of varying concentration of compounds were added and incubated for 10 minutes. The enzyme reaction was initiated by adding 5 µL of the substrate (50 µM final concentration), and fluorescence intensity was continuously monitored at excitation/emission wavelengths of 350 nm/460 nm for 10 minutes.

A further data set has as its target T2, Chymotrypsin (Homo sapiens, UniProt P17538).
T2 construct: purchased Sigma
In words: Inhibitor selectivity assay, chymotrypsin (fluorometric). In kind it is biochemical. How it is done:
as §1

The target of data set [1] is T3, full-length NS3/4A protease (genotype 1b) (Hepatitis C virus genotype 1b, UniProt Q9WMX2).
T3 construct: wild-type HCV NS3 (HCV polyprotein residues 1027–1657); His-tag (N); made in house
T3 sequence (Q9WMX2 1658-1711): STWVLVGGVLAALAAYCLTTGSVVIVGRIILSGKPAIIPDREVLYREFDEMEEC
T3 sequence (Q9WMX2 1027-1657): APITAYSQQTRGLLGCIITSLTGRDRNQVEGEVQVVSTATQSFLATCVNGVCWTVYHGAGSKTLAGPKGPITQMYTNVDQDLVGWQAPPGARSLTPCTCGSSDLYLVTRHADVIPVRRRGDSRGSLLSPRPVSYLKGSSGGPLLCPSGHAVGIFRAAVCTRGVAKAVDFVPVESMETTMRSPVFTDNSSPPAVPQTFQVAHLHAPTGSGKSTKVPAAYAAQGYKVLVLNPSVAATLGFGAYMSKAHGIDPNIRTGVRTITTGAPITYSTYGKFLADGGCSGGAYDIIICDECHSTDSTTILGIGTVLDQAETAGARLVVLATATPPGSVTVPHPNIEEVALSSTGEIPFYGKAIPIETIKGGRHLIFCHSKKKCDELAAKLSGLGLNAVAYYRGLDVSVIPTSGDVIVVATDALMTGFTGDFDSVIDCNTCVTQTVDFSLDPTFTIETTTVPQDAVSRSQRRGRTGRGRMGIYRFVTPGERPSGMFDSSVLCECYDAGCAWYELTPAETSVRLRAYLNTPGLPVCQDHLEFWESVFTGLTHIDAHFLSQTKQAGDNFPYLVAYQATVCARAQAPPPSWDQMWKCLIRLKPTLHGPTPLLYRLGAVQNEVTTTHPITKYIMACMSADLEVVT
In words: biochemical. Conditions: for IC50: purified full-length NS3/4A, genotype 1b wild-type; for inhibitory activity (SAR, in words): preliminary SAR of compound 12 analogues; for inhibition at 50 µM: read-out: percent inhibition at 50 µM compound concentration. How it is done:
All assays were done in duplicate in black 384-well plates (Matrix Technologies). […] 200 nL of 10 mM compound (50 µM final concentrations) were then added and incubated for 5 minutes. Enzyme reactions were initiated with 10 µL of substrate Ac-DE-Dap(QXL520)-EE-Abu-ψ-[COO]AS-C(5-FAMsp)-NH2 (Anaspec) (1 µM final concentration), incubated for 6 minutes, and quenched by 10 µL of 10% SDS as a stop solution. Fluorescence intensity was monitored with a POLARstar OPTIMA microplate reader (BMG LABTECH). Each plate contained a total of 32 positive and 32 negative controls.
A series of compound concentrations (0 to 200 µM final concentration at 2-fold serial dilution) in 100% DMSO were prepared in a 384-well plate. 20 µL of enzyme solution was distributed to wells, and 0.5 µL of varying concentration of compounds were added and incubated for 5 minutes. The enzyme reaction was initiated by adding 5 µL of the substrate, and its activity was continuously monitored for 6 minutes. The IC50 values were calculated by fitting with the Hill equation (1), with OriginPro 8.5 (OriginLab, Inc.) where y is percent inhibition, x is inhibitor concentration, n is the slope of the concentration–response curve (Hill slope), and Vmax is maximal inhibition from two to four independent assays. [drawing 1] (1)

The target of the next data set is T4, full-length NS3/4A (Hepatitis C virus genotype 1b, UniProt Q9WMX2).
T4 construct: wild-type HCV NS3 (HCV polyprotein residues 1027–1657); His-tag (N); made in house
T4 sequence (Q9WMX2 1658-1711): as the sequence (Q9WMX2 1658-1711) above
T4 sequence (Q9WMX2 1027-1657): as the sequence (Q9WMX2 1027-1657) above
In words: SPR binding assay (dissociation equilibrium constant KD). The note with it: 0–200 µM compound, single referenced with blank (ethanolamine). As to the method:
The full-length NS3/4A enzyme was prepared in a storage buffer (50 mM HEPES, pH 7.6, 500 mM NaCl, 1 mM DTT, 0.2% Triton X-100, and 20% glycerol) and immobilized on a CM5 sensor chip using standard amine-coupling at 25°C with running buffer HBS-P (10 mM HEPES, 150 mM NaCl, 0.05% surfactant P-20, pH 7.4) using a Biacore T100 instrument. Flow channels 1 and 3 were activated by 1-ethyl-3-(3-dimethylaminopropyl) carbodiimide hydrocholoride (EDC)/N-hydroxy succinimide (NHS) mixture, and the activated surface was blocked by ethanolamine (pH 8.5) as controls. The NS3/4A enzyme was diluted in 10 mM sodium acetate (pH 5.0), and immobilized to flow channel 4 after sensor surface activation with EDC/NHS with a 7 min injection followed by ethanolamine blocking on unoccupied surface area. NS3/4A immobilization level was ∼8,500 response units (RU). An unrelated reference protein (92 kDa) was also immobilized to flow channel 2 as another control to be compared with NS3/4A (74.6 kDa). Fifteen initial hit compounds were prepared as 10 mM DMSO stock solutions. Compound solutions with a series of increasing concentrations (0–200 µM at 1.5-fold dilution) were applied to all four channels at a 10 µL/min flow rate at 25°C. Sensorgrams were analyzed using Biaevaluation software 2.0.3, and response unit difference (ΔRU) values at each concentration were measured during the equilibration phase. Data were either single referenced with a blank (enthanolamine) or double referenced with both blank and reference protein RU values. SigmaPlot 11.0 was used to fit the data to a single rectangular hyperbolic curve to determine KD values. The hyperbola function, y = ymax·x/(KD+x), was used to plot response units and corresponding concentration, where y is the response, ymax is the maximum response, and x is the compound concentration.

Data set [2] can be described thus: Microsomal stability assay. In kind it is in vitro ADME, mouse. The note with it: Balb/c, mouse, microsomes, pH 7.4. How it is done:
A typical incubation mixture (100 µL total volume) for the metabolic stability studies contained 1 µM (final concentration) test compounds, 0.5 mg/mL microsomal protein (pooled Balb/c mouse liver microsomes prepared as described previously), 100 mM Tris-HCl buffer (pH7.4), and NADPH-generating system (5 mM isocitric acid, 0.2 unit/mL isocitric acid dehydrogenase, 5 mM magnesium chloride, 1 mM NADP^+). After pre-incubation at 37°C for 5 minutes, the reactions were started by addition of NADP^+ and further incubated for another 0, 5, 10, and 20 minutes. For control experiments, NADPH and/or liver microsomes were omitted from these incubations. The reactions were terminated by adding 100 µL ice-cold acetonitrile containing phenytoin (1 µM) as an internal standard and kept on ice for 30 minutes, followed by centrifugation at 16,100 g for 15 minutes to obtain the supernatant. Aliquots (5 µL) were then analyzed for substrate disappearance using liquid chromatography-tandem mass spectrometry (Agilent 1200 HPLC interfaced with Applied Biosystems Qtrap 3200) equipped with an electrospray ion source. Chromatographic separation was carried out with a Waters XTerra MS C18 column (2.1×50 mm, 3.5 µm; Agilent Technologies, Santa Clara, CA). The mobile phases consisted of solvent A (0.1% (v/v) aqueous formic acid) and solvent B (acetonitrile). A 250 µL/min flow rate gradient was developed for each test compound over 10 minutes (Table S2 in File S1). Mass detection of test substrates and internal standard were followed in a positive ion mode by examining multiple reaction monitoring (MRM) pairs. The spraying needle voltage was set at 5000 V. Curtain gas was set at 20; gas 1 and gas 2 were set at 45 and 50, respectively; collision assisted dissociation gas was at medium; and the source heater probe temperature was at 500°C. The test compounds were quantified by comparing the ratio of ion currents obtained for the substrates and an internal standards calibration curve. Data acquisition and processing were accomplished using Analyst software (version 1.4.1; Applied Biosystems). Apparent half-lives (t1/2) for the disappearance of parent drugs were calculated from the pseudo-first-order rate constants (ke) obtained by linear regression of plots of log [drug remaining] versus time (GraphPad Prism 5 software, La Jolla, CA) using the equation: t1/2 = 0.693/ke.

The mark [3] stands for this setting: read-out: IC50 Full-length NS3/4A.

T2 sequence (P17538 19-263): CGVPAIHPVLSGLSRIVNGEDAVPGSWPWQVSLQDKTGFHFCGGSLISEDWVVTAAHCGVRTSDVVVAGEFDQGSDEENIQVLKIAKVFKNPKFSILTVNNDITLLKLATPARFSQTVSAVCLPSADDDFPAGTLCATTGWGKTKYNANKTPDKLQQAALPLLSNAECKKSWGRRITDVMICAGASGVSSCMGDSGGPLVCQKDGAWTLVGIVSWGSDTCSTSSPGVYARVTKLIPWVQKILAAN

The half-life is the time in which the quantity being followed falls by half. Low readings indicate rapid decline, high ones slow decline. For `O=C1c2c(O)ccc(O)c2C(=O)c2c(NCCNCCO)ccc(NCCNCCO)c21` [Compound 4, mitoxantrone, reference compound], the inhibition at 100 µM at Trypsin (100 µM compound, read-out: Trypsin % Inh at 100 µM) is 22%; at Chymotrypsin (100 µM compound, read-out: Chymotrypsin % Inh at 100 µM) it was 0%. Moreover, the results for the IC50 (on Trypsin (human trypsin); against Chymotrypsin (human chymotrypsin); in data set [1] (IC50 Full-length NS3/4A)) were > 100 µM, > 100 µM and 3.1 ± 0.1 µM, respectively. Besides, the “SPR binding pattern to NS3/4A” value on full-length NS3/4A is given as “non-specific binding patterns”. The molecule also yielded a microsomal stability in data set [2] (1 µM) of 25 min. This molecule also showed a half-life at 1 µM in data set [2] of 25.4 min.

As to `Cc1ccc(S(=O)(=O)Nc2ccccc2C(=O)Nc2nc3c(Br)cccc3s2)cc1` [Compound 15], at full-length NS3/4A, the “SPR binding pattern to NS3/4A” value was “lack of binding; also recorded: did not bind”.

As to `O=C(Cc1csc(NS(=O)(=O)c2ccccc2)n1)Nc1ccccc1` [Compound 16], in data set [1] (setting [3]), the IC50 stood at 24.9 µM.

Turning to `Cc1cc(Br)ccc1NC(=O)Cc1csc(NS(=O)(=O)c2ccccc2)n1` [Compound 17], the IC50 in data set [1] (setting [3]) amounted to 23.5 µM.

For the molecule `COc1ccc(S(=O)(=O)Nc2nc(CC(=O)Nc3ccc(Br)c(C)c3)cs2)cc1` [Compound 18], the “inhibitory activity (SAR, in words)” value in data set [1] is recorded as “Moderate activity”. Besides, in data set [1] (setting [3]), the IC50 worked out at 14.4 µM.

For the molecule `COc1ccc(S(=O)(=O)Nc2nc(CC(=O)Nc3ccc(Br)cc3C)cs2)cc1` [Compound 19], the “inhibitory activity (SAR, in words)” value in data set [1] is on record as “Moderate activity”. Further, the IC50 in data set [1] (setting [3]) amounted to 6.2 µM.

Turning to `Cc1ccc(S(=O)(=O)Nc2nc(CC(=O)Nc3ccc(Br)cc3C)cs2)cc1` [Compound 20], in data set [1], the “inhibitory activity (SAR, in words)” value was “complete activity loss” and the inhibition at 50 µM was found to be 29.1%. Moreover, the IC50 in data set [1] (setting [3]) was > 100 µM.

For `CCc1ccc(NC(=O)Cc2csc(NS(=O)(=O)c3ccc(C)cc3)n2)cc1` [Compound 21], in data set [1], the “inhibitory activity (SAR, in words)” value was “complete activity loss” and the inhibition at 50 µM amounted to 7.2%. Further, the IC50 in data set [1] (setting [3]) was > 100 µM.

As for `O=C(Cc1csc(NS(=O)(=O)c2ccccc2)n1)Nc1cccc(F)c1` [Compound 22], the IC50 in data set [1] (setting [3]) was > 100 µM. Also, in data set [1], the inhibition at 50 µM is 41.7%.

As for `O=C(Cc1csc(NS(=O)(=O)c2ccc(Cl)cc2)n1)Nc1cccc(F)c1` [Compound 23], the “inhibitory activity (SAR, in words)” value in data set [1] was “Moderate activity”. Also, the IC50 in data set [1] (setting [3]) amounted to 24.2 µM.

As for `Cc1cccc(NC(=O)Cc2csc(NS(=O)(=O)c3ccc(Cl)cc3)n2)c1` [Compound 24], in data set [1], the “inhibitory activity (SAR, in words)” value is given as “Moderate activity”. In data set [1] (setting [3]), the IC50 amounted to 21.8 µM.

As for `Cc1ccc(NC(=O)Cc2csc(NS(=O)(=O)c3ccc(Cl)cc3)n2)cc1Cl` [Compound 25], the IC50 in data set [1] (setting [3]) is > 100 µM. Also, the inhibition at 50 µM in data set [1] is 29.2%.

`Cc1ccc(S(=O)(=O)Nc2ccccc2C(=O)Nc2nc3c(C)ccc(C)c3s2)cc1` [Compound 26]: the IC50 in data set [1] (setting [3]) is > 100 µM. In addition, the inhibition at 50 µM in data set [1] worked out at 0%.

On to `Cc1ccc(S(=O)(=O)Nc2ccccc2C(=O)Nc2nc3c(Br)cccc3s2)cc1` [Compound 27], for which the “inhibitory activity (SAR, in words)” value in data set [1] is “activity is regained”. Besides, the IC50 in data set [1] (setting [3]) is 15.6 µM.
